How the values were obtained:
PTRGER4 (EP4) = PTRGER4 (EP4) (Homo sapiens (Human), UniProt P35408); test: hEP4 b-arrestin assay (PathHunter HEK 293 PTGER4 b-arrestin cells); format: cell-based; details: antagonistic activity on hEP4; mean where measured multiple times
How it was run: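 Stably transfected HEK293 cells carrying EP4–ProLink and β-arrestin 2–EA (β-gal fragment complementation), pre-incubated with compound 15 min at 37 °C, then stimulated with PGE2 (20 nM final) for 120 min at 37 °C. Chemiluminescence read after 1 h detection reagent at room temperature; activity per concentration expressed as percent of DMSO control.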

PTGER2 (EP2) = PTGER2 (EP2) (Homo sapiens (Human), UniProt P43116); test: hEP2 b-arrestin assay (PathHunter HEK 293 PTGER2 b-arrestin cells); format: cell-based; details: antagonistic activity on hEP2; mean where measured multiple times
Chain of PTGER2 (EP2) (P43116 whole entry, the tested form may be a part): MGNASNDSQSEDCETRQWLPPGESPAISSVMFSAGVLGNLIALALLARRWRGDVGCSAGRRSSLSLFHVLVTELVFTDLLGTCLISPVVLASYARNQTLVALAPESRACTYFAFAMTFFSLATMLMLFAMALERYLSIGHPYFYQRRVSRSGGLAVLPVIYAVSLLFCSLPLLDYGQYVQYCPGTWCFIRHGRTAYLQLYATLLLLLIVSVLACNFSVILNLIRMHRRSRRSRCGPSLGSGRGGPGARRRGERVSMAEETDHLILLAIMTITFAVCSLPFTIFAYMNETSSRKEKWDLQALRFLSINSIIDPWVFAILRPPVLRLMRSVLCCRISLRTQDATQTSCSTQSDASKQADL
How it was run: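 HEK293 cells expressing ProLink-tagged EP2 and EA-fused β-arrestin 2 (enzyme fragment complementation) were seeded 24 h, pre-incubated with compound 15 min at 37 °C, then stimulated with 5 μM PGE2 (final) for 120 min.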

Chain of PTRGER4 (EP4) (P35408 whole entry, looked up, the tested form may be a part): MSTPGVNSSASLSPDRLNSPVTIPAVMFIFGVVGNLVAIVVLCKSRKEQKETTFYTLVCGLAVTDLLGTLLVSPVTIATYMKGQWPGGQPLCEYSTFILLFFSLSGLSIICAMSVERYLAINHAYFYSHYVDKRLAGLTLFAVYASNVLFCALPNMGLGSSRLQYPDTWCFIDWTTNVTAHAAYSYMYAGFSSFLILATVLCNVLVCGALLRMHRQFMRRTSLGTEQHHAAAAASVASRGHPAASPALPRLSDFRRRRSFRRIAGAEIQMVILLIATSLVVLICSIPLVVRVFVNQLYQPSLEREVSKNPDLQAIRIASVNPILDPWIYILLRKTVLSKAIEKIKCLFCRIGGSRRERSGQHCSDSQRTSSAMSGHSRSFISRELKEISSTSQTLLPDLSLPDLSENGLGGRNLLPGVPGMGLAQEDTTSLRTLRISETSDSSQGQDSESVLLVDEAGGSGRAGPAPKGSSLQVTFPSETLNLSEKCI

Row | Compound | IC50 (PTRGER4 (EP4)) | IC50 (PTGER2 (EP2))
1 | COc1ccc(F)c2c1cc(C)n2CCNc1cc(-c2ccc3c(c2)CC(=O)N3)ncn1 [compound 91, 5-{6-[2-(7-Fluoro-4-methoxy-2-methyl-indol-1-yl)-ethylamino]-pyrimidin-4-yl}-1,3-dihydro-indol-2-one] | 0.144 µM | 0.032 µM
2 | COc1cc(F)c(F)c2c1cc(C)n2CCNc1cc(-c2ccc3cc[nH]c3c2)ncn1 [compound 92, [2-(6,7-Difluoro-4-methoxy-2-methyl-indol-1-yl)-ethyl]-[6-(1H-indol-6-yl)-pyrimidin-4-yl]-amine] | 0.358 µM | 0.048 µM
3 | Cc1cc(F)c(F)c2c1cc(C)n2CCNc1cc(-c2ccc3c(c2)CC(=O)N3)ncn1 [compound 93] | 0.475 µM | 0.183 µM
4 | Cc1cc(F)cc2c1cc(C)n2CCNc1cc(-c2ccc(-c3ccon3)cc2)ncn1 [compound 94, [2-(6-Fluoro-2,4-dimethyl-indol-1-yl)-ethyl]-[6-(4-isoxazol-3-yl-phenyl)-pyrimidin-4-yl]-amine] | 0.299 µM | 0.03 µM
5 | Cc1ccc(F)c2c1cc(C)n2CCNc1cc(-c2ccc3c(c2)CN(C)C3=O)ncn1 [compound 95] | 0.167 µM | 0.059 µM
6 | Cc1ccc(F)c2c1cc(C)n2CCNc1cc(-c2ccc(-c3cnco3)cc2)ncn1 [compound 97] | 0.527 µM | 0.177 µM
7 | COc1cccc2c1cc(C)n2CCNc1cc(-c2ccc(-c3cscn3)cc2)ncn1 [compound 98, [2-(4-Methoxy-2-methyl-indol-1-yl)-ethyl]-[6-(4-thiazol-4-yl-phenyl)-pyrimidin-4-yl]-amine] | 0.23 µM | 0.007 µM
8 | Cc1ccc(F)c2c1cc(C)n2CCNc1cc(-c2ccc(-c3nnc[nH]3)cc2)ncn1 [compound 99] | 0.123 µM | 0.113 µM
9 | COc1cccc2c1cc(C)n2CCNc1cc(-c2ccc(-c3nnc[nH]3)cc2)ncn1 [compound 100, [2-(4-Methoxy-2-methyl-indol-1-yl)-ethyl]-{6-[4-(4H-[1,2,4]triazol-3-yl)-phenyl]-pyrimidin-4-yl}-amine] | 0.202 µM | 0.011 µM
10 | COc1ccc(F)c2c1cc(C)n2CCNc1cc(-c2csc(CO)c2)ncn1 [compound 101] | 0.548 µM | 0.037 µM
11 | Cc1c(F)cc2c(cc(C)n2CCNc2cc(-c3ccc(C(=O)O)c(CC(C)C)c3)ncn2)c1F [compound 102] | 0.597 µM | 0.142 µM
12 | Cc1cc(F)cc2c1cc(C)n2CCNc1cc(-c2ccc(C(=O)O)c(Cl)c2)ncn1 [compound 105] | 0.934 µM | 0.034 µM
13 | Cc1cc(-c2cc(NCCn3c(C)cc4c(Cl)ccc(F)c43)ncn2)ccc1C(=O)O [compound 106] | 0.698 µM | 0.044 µM
14 | COc1ccc(F)c2c1cc(C)n2CCNc1cc(-c2ccc(C(=O)O)cc2)ncn1 [compound 109] | 0.955 µM | 0.049 µM
15 | COc1ccc(F)c2c1cc(C)n2CCNc1cc(-c2ccc3[nH]c(=O)[nH]c3c2)ncn1 [compound 115] | 0.742 µM | 0.056 µM
16 | COc1ccc(F)c2c1cc(C)n2CCNc1cc(-c2ccc(S(=O)(=O)O)cc2)ncn1 [compound 116, 4-{6-[2-(7-Fluoro-4-methoxy-2-methyl-indol-1-yl)-ethylamino]-pyrimidin-4-yl}-benzenesulfonic acid] | 0.382 µM | 0.019 µM
17 | Cc1cc2ccccc2n1CCNc1cc(-c2ccc(C(=O)O)c(CC(C)C)c2)ncn1 [compound 119, 2-Isobutyl-4-{6-[2-(2-methyl-indol-1-yl)-ethylamino]-pyrimidin-4-yl}-benzoic acid] | 0.941 µM | 0.018 µM
18 | CCc1cc(-c2cc(NCCn3c(C)cc4c(F)ccc(F)c43)ncn2)ccc1C(=O)O [compound 121, 4-{6-[2-(4,7-Difluoro-2-methyl-indol-1-yl)-ethylamino]-pyrimidin-4-yl}-2-ethyl-benzoic acid] | 0.765 µM | 0.005 µM
19 | CCc1cc(-c2cc(NCCn3c(C)cc4cc(F)cc(F)c43)ncn2)ccc1C(=O)O [compound 122, 4-{6-[2-(5,7-Difluoro-2-methyl-indol-1-yl)-ethylamino]-pyrimidin-4-yl}-2-ethyl-benzoic acid] | 0.974 µM | 0.009 µM
20 | Cc1cc(-c2cc(NCCn3c(C)cc4c(C)ccc(F)c43)ncn2)cc(Cl)c1C(=O)O [compound 123, 2-Chloro-4-{6-[2-(7-fluoro-2,4-dimethyl-indol-1-yl)-ethylamino]-pyrimidin-4-yl}-6-methyl-benzoic acid] | 0.158 µM | 0.03 µM
21 | CCOc1cc(-c2cc(NCCn3c(C)cc4c(C)ccc(F)c43)ncn2)ccc1CO [compound 124, (2-Ethoxy-4-{6-[2-(7-fluoro-2,4-dimethyl-indol-1-yl)-ethylamino]-pyrimidin-4-yl}-phenyl)-methanol] | 0.151 µM | 0.007 µM
22 | CCCc1cc(-c2cc(NCCn3c(C)cc4cccc(F)c43)ncn2)ccc1C(=O)O [compound 125, 4-{6-[2-(7-Fluoro-2-methyl-indol-1-yl)-ethylamino]-pyrimidin-4-yl}-2-propyl-benzoic acid] | 0.932 µM | 0.008 µM
23 | Cc1ccc(F)c2c1cc(C)n2CCNc1cc(-c2cc(Br)c(C(=O)O)cc2F)ncn1 [compound 126] | 0.928 µM | 0.128 µM
24 | COc1cc(-c2cc(NCCn3c(C)cc4c(C)ccc(F)c43)ncn2)ccc1C(=O)O [compound 129, 4-{6-[2-(7-Fluoro-2,4-dimethyl-indol-1-yl)-ethylamino]-pyrimidin-4-yl}-2-methoxy-benzoic acid] | 0.622 µM | 0.048 µM
25 | COc1cc(-c2cc(NCCn3c(C)cc4c(OC)ccc(F)c43)ncn2)ccc1CO [compound 130, (4-{6-[2-(7-Fluoro-4-methoxy-2-methyl-indol-1-yl)-ethylamino]-pyrimidin-4-yl}-2-methoxy-phenyl)-methanol] | 0.078 µM | 0.004 µM
26 | COc1ccc(F)c2c1cc(C)n2CCNc1cc(-c2ccc(NC(N)=O)cc2)ncn1 [compound 132, (4-{6-[2-(7-Fluoro-4-methoxy-2-methyl-indol-1-yl)-ethylamino]-pyrimidin-4-yl}-phenyl)-urea] | 0.277 µM | 0.043 µM
27 | Cc1cc2ccccc2n1CCNc1cc(-c2ccc3ccncc3c2)ncn1 [compound 133] | 0.99 µM | 0.029 µM
28 | CNc1cc(-c2cc(NCCn3c(C)cc4c(F)ccc(F)c43)ncn2)ccc1C(=O)O [compound 134, 4-{6-[2-(4,7-Difluoro-2-methyl-indol-1-yl)-ethylamino]-pyrimidin-4-yl}-2-methylamino-benzoic acid] | 0.174 µM | 0.001 µM

The remaining lines, values ahead:

Row | IC50 (PTRGER4 (EP4)) | IC50 (PTGER2 (EP2)) | Compound
29 | 0.058 µM | 0.013 µM | CCc1cc(-c2cc(NCCn3c(C)cc4c(C)ccc(F)c43)ncn2)sc1C(=O)O [compound 103]
30 | 0.044 µM | 0.024 µM | CCc1cc(-c2cc(NCCn3c(C)cc4c(C)cc(F)cc43)ncn2)sc1C(=O)O [compound 104]
31 | 0.046 µM | 0.005 µM | COc1ccc(F)c2c1cc(C)n2CCNc1cc(-c2cc(C)c(C(=O)O)s2)ncn1 [compound 107]
32 | 0.015 µM | 0.001 µM | CCOc1cc(-c2cc(NCCn3c(C)cc4c(Cl)cccc43)ncn2)sc1C(=O)O [compound 108]
33 | 0.046 µM | 0.003 µM | CCc1cc(-c2cc(NCCn3c(C)cc4c(OC)cccc43)ncn2)sc1C(=O)O [compound 110]
34 | 0.166 µM | 0.031 µM | COc1ccc(Cl)c2c1cc(C)n2CCNc1cc(-c2cc(F)c(C(=O)O)s2)ncn1 [compound 111]
35 | 0.069 µM | 0.004 µM | COc1ccc(F)c2c1cc(C)n2CCNc1cc(-c2cc(F)c(C(=O)O)s2)ncn1 [compound 112]
36 | 0.057 µM | 0.008 µM | COc1cc(F)cc2c1cc(C)n2CCNc1cc(-c2cc(F)c(C(=O)O)s2)ncn1 [compound 113]
37 | 0.027 µM | 0.004 µM | COc1ccc(F)c2c1cc(C)n2CCNc1cc(-c2cc(Cl)c(C(=O)O)s2)ncn1 [compound 114]
38 | 0.114 µM | 0.001 µM | CCOc1cc(-c2cc(NCCn3c(C)cc4ccc(OC)cc43)ncn2)sc1C(=O)O [compound 117, 3-Ethoxy-5-{6-[2-(6-methoxy-2-methyl-indol-1-yl)-ethylamino]-pyrimidin-4-yl}-thiophene-2-carboxylic acid]
39 | 0.933 µM | 0.612 µM | CCc1cc(-c2cc(NCCn3c(C)cc4c(CC)cccc43)ncn2)ccc1C(=O)O [compound 118, 2-Ethyl-4-{6-[2-(4-ethyl-2-methyl-indol-1-yl)-ethylamino]-pyrimidin-4-yl}-benzoic acid]
40 | 0.495 µM | 0.006 µM | CCCc1cc(-c2cc(NCCn3c(C)cc4c(C)cccc43)ncn2)ccc1C(=O)O [compound 120, 4-{6-[2-(2,4-Dimethyl-indol-1-yl)-ethylamino]-pyrimidin-4-yl}-2-propyl-benzoic acid]
41 | 0.192 µM | 0.004 µM | CCOc1cc(-c2cc(NCCn3c(C)cc4c(OC)cccc43)ncn2)ccc1CO [compound 127, (2-Ethoxy-4-{6-[2-(4-methoxy-2-methyl-indol-1-yl)-ethylamino]-pyrimidin-4-yl}-phenyl)-methanol]
42 | 0.417 µM | 0.016 µM | CCOc1cc(-c2cc(NCCn3c(C)cc4c(C)cccc43)ncn2)ccc1C(=O)O [compound 128, 4-{6-[2-(2,4-Dimethyl-indol-1-yl)-ethylamino]-pyrimidin-4-yl}-2-ethoxy-benzoic acid]
43 | 0.402 µM | 0.023 µM | COc1cccc2c1cc(C)n2CCNc1cc(-c2cc(C)c(C(=O)O)c(Cl)c2)ncn1 [compound 131, 2-Chloro-4-{6-[2-(4-methoxy-2-methyl-indol-1-yl)-ethylamino]-pyrimidin-4-yl}-6-methyl-benzoic acid]

From patent US12011444B2, “N-substituted indole derivatives as PGE2 receptor modulators” (Idorsia Pharmaceuticals Ltd, priority 2015, dated 2024)
